From PMC9914926, “Bioactive Compounds of Underground Valerian Extracts and Their Effect on Inhibiting Metabolic Syndrome-Related Enzymes Activities” (Foods, 2023)
Like-named read-outs stand apart in the source and are kept apart here.

Assays:
[1] = biological target: T1, porcine pancreatic α-amylase (Sus scrofa, UniProt P00690); test: α-amylase inhibition assay; assay type: biochemical; details: for inhibition of α-amylase activity: 0.5–2 mg/mL; for inhibition ability on α-amylase: dosage 0–2.5 mg/mL
T1 construct: purchased Sigma-Aldrich (St. Louis, MO, USA); host or cells: porcine pancreas
T1 sequence (P00690 16-511): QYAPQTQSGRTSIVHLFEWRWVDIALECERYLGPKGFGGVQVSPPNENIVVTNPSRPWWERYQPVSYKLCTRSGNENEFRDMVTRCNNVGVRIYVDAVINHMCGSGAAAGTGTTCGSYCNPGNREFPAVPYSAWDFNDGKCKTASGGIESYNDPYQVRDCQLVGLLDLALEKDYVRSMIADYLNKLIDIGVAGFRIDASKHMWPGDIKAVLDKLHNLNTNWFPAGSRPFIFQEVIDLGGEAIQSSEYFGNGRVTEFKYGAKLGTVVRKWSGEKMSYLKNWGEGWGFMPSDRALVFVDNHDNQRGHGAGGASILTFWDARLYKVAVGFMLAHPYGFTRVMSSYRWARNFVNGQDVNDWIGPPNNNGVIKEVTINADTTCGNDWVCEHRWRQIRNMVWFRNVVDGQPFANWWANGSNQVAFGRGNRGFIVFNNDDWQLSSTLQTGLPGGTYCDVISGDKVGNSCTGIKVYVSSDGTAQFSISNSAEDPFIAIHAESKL

α-glucosidase = α-glucosidase inhibition assay; assay type: biochemical
pancreatic lipase = biological target: T2, pancreatic lipase (Homo sapiens, UniProt P16233); test: lipase inhibition assay; assay type: biochemical; details: for inhibition of pancreatic lipase activity: 0.5–2 mg/mL
T2 sequence (P16233 17-465): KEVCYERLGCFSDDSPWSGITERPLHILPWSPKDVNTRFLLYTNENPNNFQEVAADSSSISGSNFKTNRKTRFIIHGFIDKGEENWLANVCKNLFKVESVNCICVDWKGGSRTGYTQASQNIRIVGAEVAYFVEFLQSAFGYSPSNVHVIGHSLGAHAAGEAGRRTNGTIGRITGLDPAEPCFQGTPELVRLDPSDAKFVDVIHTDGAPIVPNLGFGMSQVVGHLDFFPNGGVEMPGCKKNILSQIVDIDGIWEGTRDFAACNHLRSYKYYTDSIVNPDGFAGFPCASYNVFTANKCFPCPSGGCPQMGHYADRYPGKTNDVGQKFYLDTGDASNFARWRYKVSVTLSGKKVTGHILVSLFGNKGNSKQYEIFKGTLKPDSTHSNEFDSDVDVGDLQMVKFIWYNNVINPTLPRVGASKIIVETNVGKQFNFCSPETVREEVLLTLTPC

[2] = scavenging ability on DPPH radicals; details: 0–250 μg/mL
Method: The scavenging ability of each extract on DPPH radicals was determined based on the method by Shimada et al.. Each extract was prepared in methanol at 0–1000 μg extract/mL, and 4 mL was mixed with 1 mL of methanolic solution containing DPPH radicals to a final concentration of 0.2 mM DPPH. After the mixture was shaken vigorously, it was left to stand in the dark for 30 min, and then the absorbance of the mixture was measured at 517 nm against a blank. […] Ascorbic acid, BHA, α-tocopherol, acetoxyvalerenic acid, and valerenic acid were compared. Each analysis was carried out in quadruplicate.

rabbit lung ACE = biological target: T3, rabbit lung ACE (Oryctolagus cuniculus, UniProt P12822); test: ACE inhibition assay (hippuric acid by HPLC); assay type: biochemical
T3 construct: purchased Sigma-Aldrich (St. Louis, MO, USA); host or cells: rabbit lung
T3 sequence (P12822 34-1310): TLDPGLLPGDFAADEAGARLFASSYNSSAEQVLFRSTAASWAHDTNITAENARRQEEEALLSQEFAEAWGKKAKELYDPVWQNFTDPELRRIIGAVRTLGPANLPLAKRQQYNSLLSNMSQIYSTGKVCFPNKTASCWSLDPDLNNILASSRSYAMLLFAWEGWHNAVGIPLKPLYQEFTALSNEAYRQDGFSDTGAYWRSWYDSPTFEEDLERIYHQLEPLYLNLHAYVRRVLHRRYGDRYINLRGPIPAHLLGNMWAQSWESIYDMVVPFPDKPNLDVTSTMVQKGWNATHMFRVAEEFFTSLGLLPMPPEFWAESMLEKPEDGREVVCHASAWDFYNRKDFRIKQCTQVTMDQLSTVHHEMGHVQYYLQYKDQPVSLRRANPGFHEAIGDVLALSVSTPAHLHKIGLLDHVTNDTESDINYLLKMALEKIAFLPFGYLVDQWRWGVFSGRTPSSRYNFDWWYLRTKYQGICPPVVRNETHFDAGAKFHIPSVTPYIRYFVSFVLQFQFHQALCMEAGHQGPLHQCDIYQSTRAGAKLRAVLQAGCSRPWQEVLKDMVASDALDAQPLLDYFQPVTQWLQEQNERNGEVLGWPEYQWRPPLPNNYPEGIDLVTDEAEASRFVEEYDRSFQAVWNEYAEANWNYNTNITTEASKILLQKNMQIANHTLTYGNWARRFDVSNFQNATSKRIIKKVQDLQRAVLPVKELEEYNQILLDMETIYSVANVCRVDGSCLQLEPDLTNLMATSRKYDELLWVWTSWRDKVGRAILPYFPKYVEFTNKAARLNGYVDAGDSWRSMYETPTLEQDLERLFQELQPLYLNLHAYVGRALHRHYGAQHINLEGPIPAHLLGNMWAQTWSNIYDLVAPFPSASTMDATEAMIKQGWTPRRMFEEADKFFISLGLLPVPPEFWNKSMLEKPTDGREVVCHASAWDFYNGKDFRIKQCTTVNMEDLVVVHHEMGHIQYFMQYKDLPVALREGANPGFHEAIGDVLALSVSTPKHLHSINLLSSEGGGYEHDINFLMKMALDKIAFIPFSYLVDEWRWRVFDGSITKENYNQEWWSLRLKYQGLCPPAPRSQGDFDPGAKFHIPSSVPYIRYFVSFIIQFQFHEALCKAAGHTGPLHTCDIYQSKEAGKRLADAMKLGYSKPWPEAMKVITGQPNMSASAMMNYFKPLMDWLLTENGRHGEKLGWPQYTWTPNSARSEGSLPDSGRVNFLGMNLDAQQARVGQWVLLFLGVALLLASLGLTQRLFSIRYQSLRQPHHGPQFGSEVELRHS

[3] = read-out: IC50, ACE (converted)

| Structure (SMILES) | IC50, α-Glucosidase (α-glucosidase) | IC50 (pancreatic lipase) [mM] | IC50 (rabbit lung ACE; [3]) [mM] | inhibition ability on α-amylase [1] | further results |
| --- | --- | --- | --- | --- | --- |
| C[C@H]1O[C@H](O[C@H]2[C@H](O)[C@@H](O)[C@@H](O[C@H]3[C@H](O)[C@@H](O)C(O)O[C@@H]3CO)O[C@@H]2CO)[C@H](O)[C@@H](O)[C@@H]1N[C@H]1C=C(CO)[C@@H](O)[C@H](O)[C@H]1O (stereo partly drawn) [Acarbose, acarbose, reference compound] | – | – | – | – | inhibitory ability of α-amylase ([1]; 5–25 μg/mL): 47–88% |
| CC(=O)O[C@@H]1CC(C)=C2[C@H]1[C@H](C)CC[C@H]2/C=C(\C)C(=O)O [Acetoxyvalerenic acid, acetoxyvalerenic acid] | 1.827 ± 0.005D mg/mL | – | – | – | inhibition of α-amylase activity [1]: could not effectively inhibit; inhibition of pancreatic lipase activity (pancreatic lipase): Neither; ability to scavenge DPPH radicals [2]: not able to scavenge the DPPH radicals; inhibitory ability on ACE (rabbit lung ACE; 2 mg/mL): 15% |
| O=C(O)/C=C/c1ccc(O)c(O)c1 [Caffeic acid, caffeic acid] | 1.289 ± 0.024E mg/mL | 4.03 | 0.522 | – | – |
| O=C(/C=C/c1ccc(O)c(O)c1)O[C@@H]1C[C@](O)(C(=O)O)C[C@@H](O)[C@H]1O [Chlorogenic acid] | – | 3.13 | 13.6 | 0–89.52% | IC50 ([1]; read-out: IC50, α-Amylase (converted)): 5.06 mM |
| O=C(O)c1cc(O)c(O)c(O)c1 [Gallic acid, gallic acid] | 2.164 ± 0.026C mg/mL | 3.66 | – | 0–95.22% | IC50 [1]: 7.39 mM; IC50 (rabbit lung ACE): 12.3 mM |
| O=C(O)c1ccc(O)c(O)c1 [Protocatechuic acid, protocatechuic acid] | 3.721 ± 0.042B mg/mL | 4.37 | 16 | 0–88.03% | – |
| CC1=C2[C@H](/C=C(\C)C(=O)O)CC[C@@H](C)[C@H]2CC1 [Valerenic acid] | 0.617 ± 0.028F mg/mL | – | – | – | inhibition of α-amylase activity [1]: could not effectively inhibit; inhibition of pancreatic lipase activity (pancreatic lipase): Neither; ability to scavenge DPPH radicals [2]: not able to scavenge the DPPH radicals; IC50, ACE (rabbit lung ACE): 0.225 ± 0.023D mg/mL |
